Test results from paper PMC7679302 (Environmental Science and Pollution Research International, 2020).
Marks after values point to notes of the source that are not given here.

How the values were obtained:
Daphnia magna [1] = system: Daphnia magna; set-up: method as in Lalone et al. [2013]; details: 21-day exposure to as much as 500 μg/L; ref Lalone et al. [2013]; cited from earlier work
[2] = system: fathead minnow (Pimephales promelas); set-up: method as in Lalone et al. [2013]; details: 21-day exposure; ref Lalone et al. [2013]; cited from earlier work
[3] = system: Japanese medaka (Oryzias latipes); set-up: method as in Lalone et al. [2013]; details: 21-day exposure; ref Lalone et al. [2013]; cited from earlier work
amphipods H. azteca = experiment: 21 d range-finding sediment test, amphipods; format: in vivo, Hyalella azteca; details: n = 3
Experimental: (§1) Range-finding tests of 21 d were completed with juvenile mussels, amphipods and mayflies to assist with the selection of the concentrations to be used in final testing. Nominal concentrations in range-finding tests were 0.1, 1, 10, 100, and 1000 mg/kg, based on dry weight of sediment. Range-finding test conditions were identical to those described in the manuscript for chronic sediment tests with the exception of test duration.
Amphipods were fed 2.5 mg Tetra-min twice per week during weeks one and two, and three times during week three. At the end of the test, amphipods were removed and the survivors were counted and weighed.

Daphnia magna [4] = details: ref FDA-CDER [1996]; cited from earlier work
[5] = system: rainbow trout (Oncorhynchus mykiss); details: ref FDA-CDER [1996]; cited from earlier work
mayfly Hexagenia spp. [6] = experiment: Chronic 42-day sediment test with mayflies (survival, growth); details: measured, n = 6
Experimental: (§3) Nominal concentrations were 10, 30, 100, 300, and 1000 mg/kg for juvenile freshwater mussels and 3, 10, 30, 100, and 300 mg/kg for amphipods and mayflies, and were based on the results of range-finding tests (detailed in Supplementary Materials). […] For each PPCP, the concentration of solvent used was consistent across treatments.
(§4) The sediments were mixed for 24 h, left open in a fume hood for 3–5 days for the acetone to evaporate, and then stored at 4 °C until use. […] All beakers were aerated for 1 week under testing conditions prior to the addition of organisms, and throughout the tests. Duration of toxicity tests varied depending on the species and endpoint of interest (see below). Water quality parameters were collected for each test (Table S1).
(§5) Briefly, eggs of Hexagenia spp. […] Prior to testing, eggs were hatched and nymphs were grown in aerated 20-L aquaria containing culture sediment (depth: 2.5 cm) and culture water (depth: 10 cm) for 6 to 7 weeks.
(§6) Ten mayflies (5–8 mg wet weight) were added to each beaker (three replicates for each control and PPCP concentration). Two tests were conducted for each compound. […] At the end of the test, mayflies were removed and surviving animals from each of the three replicates were counted and weighed.

amphipod Hyalella azteca = experiment: Chronic 42-day sediment test with amphipods (survival, growth, reproduction, sex ratio); details: for Females (percent of surviving amphipods), mean (SEM) / Survival (percent of initial animals added), mean (SEM): n = 10
Experimental: Dechlorinated municipal tap water was used for cultures and toxicity tests. Both cultures and toxicity tests were held at 25 °C with a photoperiod of 16 h light:8 h dark, and amphipods were fed finely ground Tetra-Min fish food flakes (Tetra GMBH, Melle, Germany). Juvenile amphipods were removed weekly from breeding containers and used in toxicity tests.
Two tests were conducted for each compound. Amphipods were fed ground Tetra-Min twice per week during weeks 1 and 2, three times during week 3, and 5 mg three times per week during weeks 4 to 6. Surviving adults were counted, weighed as a group, and examined under a dissecting microscope to identify males (enlarged second gnathopods) and females, and the number of juveniles was recorded.

mayflies Hexagenia spp. = experiment: 21 d range-finding sediment test, mayflies; format: in vivo; details: n = 3
Experimental: as §1
At the end of the test, survival and wet weight of mayflies in each replicate were recorded.

[7] = system: juvenile mussels L. siliquoidea; experiment: 21 d range-finding sediment test, juvenile mussels; format: in vivo; details: n = 3
Experimental: as §1
After 21 d, mussels were recovered and transferred to Petri dishes filled with clean sand and housed in large trays of aerated culture water to assess burial ability.

[8] = system: juvenile Lampsilis siliquoidea; experiment: Chronic 28-day spiked sediment test with juvenile mussels (survival, burial ability); details: for Burial ability (percent of surviving mussels), mean (SEM) / Survival (percent of initial animals added), mean (SEM): n = 5
From the text: Freshwater mussels (L. siliquoidea, 6–8 months old, ~ 1 cm in length) were purchased from Missouri State University (Springfield, MO, USA).

[9] = system: Lampsilis siliquoidea glochidia; experiment: Acute 48 h aqueous toxicity test with glochidia (viability); format: in vivo; details: Lampsilis siliquoidea, in vivo, 48 h
From the text: (§2) Aqueous acute toxicity tests were based on the American Society for Testing and Materials (ASTM [2013]) protocols for conducting toxicity tests with early life stages of freshwater mussels. Gravid female L. siliquoidea were collected from an established reference site in the Maitland River (ON) and kept in ECCC’s Aquatic Life Research Facility (Canada Centre for Inland Waters, Burlington, ON). Glochidia were removed from gravid females and their viability (i.e., ability to close their valves) was assessed. Glochidia from a minimum of three gravid mussels whose glochidia exceeded 90% viability were pooled and exposed to a geometric series of nominal concentrations (0, 0.0025, 0.025, 0.25, 2.5, 25 mg/L) of either FIN or MGA plus a solvent control. Tests were conducted in 250-mL glass beakers (unaerated and unfed) with culture water. After 24 and 48 h of exposure, glochidia viability was assessed in a minimum of 100 glochidia per replicate (four replicates). Water samples were collected at the beginning and end of the tests, and frozen pending chemical analysis.

[10] = as above; format: in vivo, Lampsilis siliquoidea; details: Lampsilis siliquoidea, in vivo
From the text: as §2

mayfly Hexagenia spp. [11] = details: Hexagenia spp. (mixture of H. rigida and H. limbata), in vivo, 42 days, pH 8.3
Experimental: as §3, §4, §5, §6

[12] = finasteride 1 mg/kg dw sediment (0.003 mg/L water), measured, 42-day
[13] = finasteride 4 mg/kg dw sediment (0.03 mg/L water), measured, 42-day
[14] = finasteride 11 mg/kg dw sediment (0.1 mg/L water), measured, 42-day
[15] = finasteride 35 mg/kg dw sediment (0.5 mg/L water), measured, 42-day
[16] = finasteride 96 mg/kg dw sediment (2 mg/L water), measured, 42-day
[17] = survival, growth, 42-day, dry weight sediment, measured
[18] = finasteride 4 mg/kg dw sediment (0.03 mg/L water), measured
[19] = finasteride 11 mg/kg dw sediment (0.1 mg/L water), measured
[20] = finasteride 35 mg/kg dw sediment (0.5 mg/L water), measured
[21] = finasteride 96 mg/kg dw sediment (2 mg/L water), measured
[22] = finasteride 430 mg/kg dw sediment (20 mg/L water), measured
[23] = survival, dry weight sediment, measured
[24] = survival, overlying water, measured

CC(=O)S[C@@H]1CC2=CC(=O)CC[C@]2(C)[C@H]2CC[C@@]3(C)[C@@H](CC[C@@]34CCC(=O)O4)[C@H]12 [spironolactone]
Effect on reproduction (Daphnia magna [1]): no effect
Concentration that reduced fecundity [2]: 50 ng/mL
Concentration that reduced fecundity [3]: 50 ng/mL

CC(C)(C)NC(=O)[C@H]1CC[C@H]2[C@@H]3CC[C@H]4NC(=O)C=C[C@]4(C)[C@H]3CC[C@]12C [Finasteride]
Growth, mean (SEM) (amphipods H. azteca; 0.1 mg/kg dry weight nominal): 1.1 (0.12) mg wet weight
Survival (%), mean (SEM) (amphipods H. azteca; 0.1 mg/kg dry weight nominal): 100 (0.0) %
Growth, mean (SEM) (amphipods H. azteca; 1 mg/kg dry weight nominal): 1.1 (0.04) mg wet weight
Survival (%), mean (SEM) (amphipods H. azteca; 1 mg/kg dry weight nominal): 100 (0.0) %
Growth, mean (SEM) (amphipods H. azteca; 10 mg/kg dry weight nominal): 1.2 (0.05) mg wet weight
Survival (%), mean (SEM) (amphipods H. azteca; 10 mg/kg dry weight nominal): 100 (0.0) %
Growth, mean (SEM) (amphipods H. azteca; 100 mg/kg dry weight nominal): 0.79 (0.06) mg wet weight
Survival (%), mean (SEM) (amphipods H. azteca; 100 mg/kg dry weight nominal): 100 (0.0) %
Survival (%), mean (SEM) (amphipods H. azteca; 1000 mg/kg dry weight nominal): 0^a (0.0) %
96-h LC50 (Daphnia magna [4]): 21 µg/mL
96-h LC50 [5]: 20 µg/mL
Survival (percent of initial animals added), mean (SEM) (mayfly Hexagenia spp. [6]; finasteride 1 mg/kg dw sediment (0.003 mg/L water)): 98 (1.7) %
Survival (percent of initial animals added), mean (SEM) (mayfly Hexagenia spp. [6]; finasteride 4 mg/kg dw sediment (0.03 mg/L water)): 97 (2.1) %
Survival (percent of initial animals added), mean (SEM) (mayfly Hexagenia spp. [6]; finasteride 11 mg/kg dw sediment (0.1 mg/L water)): 100 (0.0) %
Survival (percent of initial animals added), mean (SEM) (mayfly Hexagenia spp. [6]; finasteride 35 mg/kg dw sediment (0.5 mg/L water)): 90 (2.6)^d,i %
Survival (percent of initial animals added), mean (SEM) (mayfly Hexagenia spp. [6]; finasteride 96 mg/kg dw sediment (2 mg/L water)): 97 (2.1) %
Survival, % of pooled controls (amphipod Hyalella azteca; 96 mg/kg (2 mg/L) FIN, 42-day): 65%
NOEC, overlying water (amphipod Hyalella azteca; Hyalella azteca, in vivo, 42 days, pH 8.3): 0.5 mg/L
Females (percent of surviving amphipods), mean (SEM) (amphipod Hyalella azteca; [12]): 57 (4.2) %
Survival (percent of initial animals added), mean (SEM) (amphipod Hyalella azteca; [12]): 96 (1.4) %
Females (percent of surviving amphipods), mean (SEM) (amphipod Hyalella azteca; [13]): 53 (3.0) %
Survival (percent of initial animals added), mean (SEM) (amphipod Hyalella azteca; [13]): 93 (1.7) %
Females (percent of surviving amphipods), mean (SEM) (amphipod Hyalella azteca; [14]): 50 (4.4) %
Survival (percent of initial animals added), mean (SEM) (amphipod Hyalella azteca; [14]): 94 (1.7) %
Females (percent of surviving amphipods), mean (SEM) (amphipod Hyalella azteca; [15]): 52 (2.7) %
Survival (percent of initial animals added), mean (SEM) (amphipod Hyalella azteca; [15]): 92 (2.0) %
Females (percent of surviving amphipods), mean (SEM) (amphipod Hyalella azteca; [16]): 69 (4.4)^d %
Survival (percent of initial animals added), mean (SEM) (amphipod Hyalella azteca; [16]): 63 (8.3)^d %
ChV, sediment (amphipod Hyalella azteca; survival, growth, 42-day, dry weight sediment): 58 mg/kg
LOEC, sediment (amphipod Hyalella azteca; [17]): 96 mg/kg
NOEC, sediment (amphipod Hyalella azteca; [17]): 35 mg/kg
ChV, overlying water (amphipod Hyalella azteca; survival, growth, 42-day, overlying water): 1 mg/L
LOEC, overlying water (amphipod Hyalella azteca; survival, growth, 42-day, overlying water, measured): 2 mg/L
Growth, mean (SEM) (mayflies Hexagenia spp.; 0.1 mg/kg dry weight nominal): 30 (0.5) mg wet weight
Survival (%), mean (SEM) (mayflies Hexagenia spp.; 0.1 mg/kg dry weight nominal): 100 (0.0) %
Growth, mean (SEM) (mayflies Hexagenia spp.; 1 mg/kg dry weight nominal): 30 (0.6) mg wet weight
Survival (%), mean (SEM) (mayflies Hexagenia spp.; 1 mg/kg dry weight nominal): 100 (0.0) %
Growth, mean (SEM) (mayflies Hexagenia spp.; 10 mg/kg dry weight nominal): 31 (0.3) mg wet weight
Survival (%), mean (SEM) (mayflies Hexagenia spp.; 10 mg/kg dry weight nominal): 100 (0.0) %
Growth, mean (SEM) (mayflies Hexagenia spp.; 100 mg/kg dry weight nominal): 29 (1.3) mg wet weight
Survival (%), mean (SEM) (mayflies Hexagenia spp.; 100 mg/kg dry weight nominal): 93 (3.3)^a %
Growth, mean (SEM) (mayflies Hexagenia spp.; 1000 mg/kg dry weight nominal): 4.5^a,^d (0.0) mg wet weight
Survival (%), mean (SEM) (mayflies Hexagenia spp.; 1000 mg/kg dry weight nominal): 3.3^a (3.3) %
Burial (%), mean (SEM) ([7]; 0.1 mg/kg dry weight nominal): 72 (6.3) %
Survival (%), mean (SEM) ([7]; 0.1 mg/kg dry weight nominal): 100 (0.0) %
Burial (%), mean (SEM) ([7]; 1 mg/kg dry weight nominal): 93 (3.3) %
Survival (%), mean (SEM) ([7]; 1 mg/kg dry weight nominal): 100 (0.0) %
Burial (%), mean (SEM) ([7]; 10 mg/kg dry weight nominal): 87 (6.7) %
Survival (%), mean (SEM) ([7]; 10 mg/kg dry weight nominal): 100 (0.0) %
Burial (%), mean (SEM) ([7]; 100 mg/kg dry weight nominal): 90 (0.0) %
Survival (%), mean (SEM) ([7]; 100 mg/kg dry weight nominal): 100 (0.0) %
Burial (%), mean (SEM) ([7]; 1000 mg/kg dry weight nominal): 77 (5.1) %
Survival (%), mean (SEM) ([7]; 1000 mg/kg dry weight nominal): 53 (6.7)^a %
Burial ability (percent of surviving mussels), mean (SEM) [8, 18]: 90 (5.5) %
Survival (percent of initial animals added), mean (SEM) [8, 18]: 94 (2.4) %
Burial ability (percent of surviving mussels), mean (SEM) [8, 19]: 98 (2.0) %
Survival (percent of initial animals added), mean (SEM) [8, 19]: 94 (4.0) %
Burial ability (percent of surviving mussels), mean (SEM) [8, 20]: 88 (4.0) %
Survival (percent of initial animals added), mean (SEM) [8, 20]: 98 (2.0) %
Burial ability (percent of surviving mussels), mean (SEM) [8, 21]: 82 (5.5) %
Survival (percent of initial animals added), mean (SEM) [8, 21]: 72 (8.6)^d %
Burial ability (percent of surviving mussels), mean (SEM) [8, 22]: 0 (0)^d %
Survival (percent of initial animals added), mean (SEM) [8, 22]: 10 (5.5)^d %
Overlying water concentration at which both survival and burial ability were reduced ([8]; measured): 20 mg/L
Sediment concentration at which both survival and burial ability were reduced ([8]; measured): 430 mg/kg
ChV, sediment ([8]; survival, dry weight sediment): 58 mg/kg
LOEC, sediment [8, 23]: 96 mg/kg
NOEC, sediment [8, 23]: 35 mg/kg
ChV, overlying water ([8]; survival, overlying water): 1 mg/L
LOEC, overlying water [8, 24]: 2 mg/L
NOEC, overlying water [8, 24]: 0.5 mg/L
ChV (geometric mean of NOEC and LOEC) [9]: 7.6 mg/L
LOEC [9]: 23 mg/L^a
NOEC [9]: 2.5 mg/L
viability at 48 h, 0.003 mg/L [10]: 90%
viability at 48 h, 0.03 mg/L [10]: 87%
viability at 48 h, 0.3 mg/L [10]: 87%
viability at 48 h, 2.5 mg/L [10]: 88%
viability at 48 h, 23 mg/L [10]: 85%
ChV, overlying water (mayfly Hexagenia spp. [11]): 1 mg/L
LOEC, overlying water (mayfly Hexagenia spp. [11]): 2 mg/L
LOEC, sediment (mayfly Hexagenia spp. [11]): 96 mg/kg
NOEC, overlying water (mayfly Hexagenia spp. [11]): 0.5 mg/L
NOEC, sediment (mayfly Hexagenia spp. [11]): 35 mg/kg
